{"source": "paper PMC6154583", "about": "“Optimized 4,5-Diarylimidazoles as Potent/Selective Inhibitors of Protein Kinase CK1δ and Their Structural Relation to p38α MAPK” (Molecules : A Journal of Synthetic Chemistry and Natural …, 2017)", "key": {"[1]": {"biological_target": "ABL1 (Homo sapiens, UniProt P00519)", "test": "ProQinase 33PanQinase selectivity profiling", "format": "biochemical", "conditions": "100 nM, relative to control, read-out: Residual activity (%)"}, "[2]": {"biological_target": "T1, ACK1 (Homo sapiens, UniProt Q07912)", "T1 construct": "purchased ProQinase GmbH (Freiburg, Germany)", "test": "ProQinase 33PanQinase selectivity profiling", "format": "biochemical", "conditions": "100 nM, relative to control, read-out: Residual activity (%)"}, "[3]": {"biological_target": "ACV-R1 (Homo sapiens, UniProt Q04771)", "test": "ProQinase 33PanQinase selectivity profiling", "format": "biochemical", "conditions": "100 nM, relative to control, read-out: Residual activity (%)"}, "[4]": {"biological_target": "T2, ACV-R1B (Homo sapiens, UniProt P36896)", "T2 construct": "purchased ProQinase GmbH (Freiburg, Germany)", "test": "ProQinase 33PanQinase selectivity profiling", "format": "biochemical", "conditions": "100 nM, relative to control, read-out: Residual activity (%)"}, "[5]": {"biological_target": "ASK1 (Homo sapiens, UniProt Q99683)", "sequence (Q99683 whole entry)": "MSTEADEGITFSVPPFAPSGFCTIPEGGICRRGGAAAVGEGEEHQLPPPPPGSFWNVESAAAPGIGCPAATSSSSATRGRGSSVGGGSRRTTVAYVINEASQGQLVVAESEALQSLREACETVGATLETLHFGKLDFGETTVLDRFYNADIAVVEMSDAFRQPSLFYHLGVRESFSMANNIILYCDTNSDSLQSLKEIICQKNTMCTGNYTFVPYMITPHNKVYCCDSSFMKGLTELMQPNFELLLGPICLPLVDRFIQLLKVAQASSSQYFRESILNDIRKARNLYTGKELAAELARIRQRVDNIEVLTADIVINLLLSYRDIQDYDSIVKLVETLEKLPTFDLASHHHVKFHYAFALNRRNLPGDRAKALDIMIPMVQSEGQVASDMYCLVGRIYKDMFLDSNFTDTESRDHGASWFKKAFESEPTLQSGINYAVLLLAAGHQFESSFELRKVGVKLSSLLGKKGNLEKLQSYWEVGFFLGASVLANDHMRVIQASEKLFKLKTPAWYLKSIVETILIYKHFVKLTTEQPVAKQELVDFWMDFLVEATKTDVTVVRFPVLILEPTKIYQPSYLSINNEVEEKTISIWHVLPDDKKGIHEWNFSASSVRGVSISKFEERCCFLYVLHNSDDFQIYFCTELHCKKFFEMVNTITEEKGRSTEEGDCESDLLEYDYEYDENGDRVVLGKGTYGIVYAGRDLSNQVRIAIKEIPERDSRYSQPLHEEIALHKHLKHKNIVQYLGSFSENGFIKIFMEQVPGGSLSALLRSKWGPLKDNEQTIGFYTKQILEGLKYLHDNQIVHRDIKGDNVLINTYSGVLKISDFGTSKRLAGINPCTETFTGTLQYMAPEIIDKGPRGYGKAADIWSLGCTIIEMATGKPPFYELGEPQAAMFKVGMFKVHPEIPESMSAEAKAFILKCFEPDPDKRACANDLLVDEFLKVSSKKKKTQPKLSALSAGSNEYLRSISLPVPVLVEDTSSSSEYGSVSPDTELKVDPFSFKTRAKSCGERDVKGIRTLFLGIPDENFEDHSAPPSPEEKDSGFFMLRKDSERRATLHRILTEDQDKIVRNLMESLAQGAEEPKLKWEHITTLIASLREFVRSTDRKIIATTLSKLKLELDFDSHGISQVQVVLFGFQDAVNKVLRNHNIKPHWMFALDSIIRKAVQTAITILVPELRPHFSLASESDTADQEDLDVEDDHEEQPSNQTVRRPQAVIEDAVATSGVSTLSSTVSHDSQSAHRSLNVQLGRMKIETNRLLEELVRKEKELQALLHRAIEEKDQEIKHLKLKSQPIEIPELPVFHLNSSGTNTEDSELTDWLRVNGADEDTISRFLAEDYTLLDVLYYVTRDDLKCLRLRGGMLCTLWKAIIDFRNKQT", "test": "ProQinase 33PanQinase selectivity profiling", "format": "biochemical", "conditions": "100 nM, relative to control, read-out: Residual activity (%)"}, "[6]": {"biological_target": "Aurora-B (Homo sapiens, UniProt Q96GD4)", "sequence (Q96GD4 whole entry)": "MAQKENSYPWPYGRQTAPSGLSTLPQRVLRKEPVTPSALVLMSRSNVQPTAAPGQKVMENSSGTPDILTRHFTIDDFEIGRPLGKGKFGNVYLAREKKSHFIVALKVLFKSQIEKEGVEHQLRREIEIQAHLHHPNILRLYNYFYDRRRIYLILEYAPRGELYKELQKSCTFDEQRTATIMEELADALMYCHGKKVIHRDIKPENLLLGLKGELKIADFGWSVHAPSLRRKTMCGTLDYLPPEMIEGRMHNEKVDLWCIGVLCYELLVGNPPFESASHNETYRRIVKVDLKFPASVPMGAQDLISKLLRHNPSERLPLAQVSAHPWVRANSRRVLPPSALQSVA", "test": "ProQinase 33PanQinase selectivity profiling", "format": "biochemical", "conditions": "100 nM, relative to control, read-out: Residual activity (%)"}, "[7]": {"biological_target": "BLK (Homo sapiens, UniProt P51451)", "test": "ProQinase 33PanQinase selectivity profiling", "format": "biochemical", "conditions": "100 nM, relative to control, read-out: Residual activity (%)"}, "[8]": {"biological_target": "T3, BMX (Homo sapiens, UniProt P51813)", "T3 construct": "purchased ProQinase GmbH", "T3 sequence (P51813 whole entry)": "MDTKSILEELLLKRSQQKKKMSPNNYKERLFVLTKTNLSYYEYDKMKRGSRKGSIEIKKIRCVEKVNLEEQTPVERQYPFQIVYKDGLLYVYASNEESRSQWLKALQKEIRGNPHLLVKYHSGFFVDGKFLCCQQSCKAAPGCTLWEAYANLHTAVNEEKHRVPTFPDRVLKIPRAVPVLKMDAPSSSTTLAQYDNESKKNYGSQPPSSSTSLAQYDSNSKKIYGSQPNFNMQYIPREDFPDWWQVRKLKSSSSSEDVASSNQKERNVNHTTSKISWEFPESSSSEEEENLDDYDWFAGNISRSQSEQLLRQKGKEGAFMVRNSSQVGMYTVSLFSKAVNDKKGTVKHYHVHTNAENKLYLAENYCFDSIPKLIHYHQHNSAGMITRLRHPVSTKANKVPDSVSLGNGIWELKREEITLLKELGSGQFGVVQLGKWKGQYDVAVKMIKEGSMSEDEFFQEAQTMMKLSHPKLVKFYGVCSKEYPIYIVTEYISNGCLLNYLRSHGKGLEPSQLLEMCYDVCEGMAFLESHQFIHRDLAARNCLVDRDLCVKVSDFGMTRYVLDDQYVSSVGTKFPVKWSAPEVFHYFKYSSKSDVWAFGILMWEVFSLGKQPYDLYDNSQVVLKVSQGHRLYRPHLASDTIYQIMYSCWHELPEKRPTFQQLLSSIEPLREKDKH", "test": "ProQinase 33PanQinase selectivity profiling", "format": "biochemical", "conditions": "100 nM, relative to control, read-out: Residual activity (%)"}, "[9]": {"biological_target": "CAMKK1 (Homo sapiens, UniProt Q8N5S9)", "test": "ProQinase 33PanQinase selectivity profiling", "format": "biochemical", "conditions": "100 nM, relative to control, read-out: Residual activity (%)"}, "[10]": {"biological_target": "CAMKK2 (Homo sapiens, UniProt Q96RR4)", "sequence (Q96RR4 whole entry)": "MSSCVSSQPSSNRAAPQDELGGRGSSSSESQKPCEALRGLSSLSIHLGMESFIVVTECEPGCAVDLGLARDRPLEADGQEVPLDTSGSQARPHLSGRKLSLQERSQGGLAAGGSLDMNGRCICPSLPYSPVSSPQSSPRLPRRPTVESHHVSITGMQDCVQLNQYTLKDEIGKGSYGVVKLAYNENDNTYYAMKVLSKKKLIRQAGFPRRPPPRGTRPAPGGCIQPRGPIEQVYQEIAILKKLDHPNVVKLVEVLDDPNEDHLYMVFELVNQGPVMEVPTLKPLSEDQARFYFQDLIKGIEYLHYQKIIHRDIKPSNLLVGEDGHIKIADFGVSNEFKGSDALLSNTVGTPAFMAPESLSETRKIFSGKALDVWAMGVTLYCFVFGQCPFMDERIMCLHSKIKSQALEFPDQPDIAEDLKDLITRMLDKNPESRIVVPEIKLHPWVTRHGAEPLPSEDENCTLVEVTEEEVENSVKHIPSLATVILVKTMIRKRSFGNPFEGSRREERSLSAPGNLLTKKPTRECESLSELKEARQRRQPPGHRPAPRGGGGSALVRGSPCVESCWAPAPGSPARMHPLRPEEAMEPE", "test": "ProQinase 33PanQinase selectivity profiling", "format": "biochemical", "conditions": "100 nM, relative to control, read-out: Residual activity (%)"}, "[11]": {"biological_target": "T4, CDC7/ASK (Homo sapiens, UniProt O00311)", "T4 construct": "purchased ProQinase GmbH", "test": "ProQinase 33PanQinase selectivity profiling", "format": "biochemical", "conditions": "100 nM, relative to control, read-out: Residual activity (%)"}, "[12]": {"biological_target": "CDK1/CycA2 (Homo sapiens, UniProt P06493)", "test": "ProQinase 33PanQinase selectivity profiling", "format": "biochemical", "conditions": "100 nM, relative to control, read-out: Residual activity (%)"}, "[13]": {"biological_target": "CDK19/CycC (Homo sapiens, UniProt Q9BWU1)", "test": "ProQinase 33PanQinase selectivity profiling", "format": "biochemical", "conditions": "100 nM, relative to control, read-out: Residual activity (%)"}, "[14]": {"biological_target": "CDK2/CycA2 (Homo sapiens, UniProt P24941)", "test": "ProQinase 33PanQinase selectivity profiling", "format": "biochemical", "conditions": "100 nM, relative to control, read-out: Residual activity (%)"}, "[15]": {"biological_target": "CDK2/CycE1 (Homo sapiens, UniProt P24941)", "test": "ProQinase 33PanQinase selectivity profiling", "format": "biochemical", "conditions": "100 nM, relative to control, read-out: Residual activity (%)"}, "[16]": {"biological_target": "CDK6/CycD1 (Homo sapiens, UniProt Q00534)", "sequence (Q00534 whole entry)": "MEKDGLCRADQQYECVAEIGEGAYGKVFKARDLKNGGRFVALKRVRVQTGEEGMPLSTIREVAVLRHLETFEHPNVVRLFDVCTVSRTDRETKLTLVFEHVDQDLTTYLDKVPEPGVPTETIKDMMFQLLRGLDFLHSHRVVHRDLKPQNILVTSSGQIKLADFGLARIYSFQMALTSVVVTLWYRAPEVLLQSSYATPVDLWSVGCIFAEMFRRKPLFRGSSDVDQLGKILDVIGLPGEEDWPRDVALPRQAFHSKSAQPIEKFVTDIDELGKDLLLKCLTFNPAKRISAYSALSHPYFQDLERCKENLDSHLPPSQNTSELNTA", "sequence (P24385 whole entry partner)": "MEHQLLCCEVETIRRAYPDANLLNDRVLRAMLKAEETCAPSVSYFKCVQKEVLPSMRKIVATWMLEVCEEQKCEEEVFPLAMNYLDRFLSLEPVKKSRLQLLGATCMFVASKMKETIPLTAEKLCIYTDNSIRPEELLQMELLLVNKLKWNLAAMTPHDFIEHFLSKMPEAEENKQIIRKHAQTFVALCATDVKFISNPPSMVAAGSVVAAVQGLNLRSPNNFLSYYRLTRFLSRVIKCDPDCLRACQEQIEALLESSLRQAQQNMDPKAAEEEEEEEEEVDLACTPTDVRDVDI", "test": "ProQinase 33PanQinase selectivity profiling", "format": "biochemical", "conditions": "100 nM, relative to control, read-out: Residual activity (%)"}, "[17]": {"biological_target": "CDK7/CycH/MAT1 (Homo sapiens, UniProt P50613)", "test": "ProQinase 33PanQinase selectivity profiling", "format": "biochemical", "conditions": "100 nM, relative to control, read-out: Residual activity (%)"}, "[18]": {"biological_target": "T5, CHK2 (Homo sapiens, UniProt O96017)", "T5 construct": "purchased ProQinase GmbH", "test": "ProQinase 33PanQinase selectivity profiling", "format": "biochemical", "conditions": "100 nM, relative to control, read-out: Residual activity (%)"}, "[19]": {"biological_target": "CK1-delta (Homo sapiens, UniProt P48730)", "test": "ProQinase 33PanQinase selectivity profiling", "format": "biochemical", "conditions": "100 nM, relative to control, read-out: Residual activity (%)"}, "[20]": {"biological_target": "CK1-gamma1 (Homo sapiens, UniProt Q9HCP0)", "sequence (Q9HCP0 whole entry)": "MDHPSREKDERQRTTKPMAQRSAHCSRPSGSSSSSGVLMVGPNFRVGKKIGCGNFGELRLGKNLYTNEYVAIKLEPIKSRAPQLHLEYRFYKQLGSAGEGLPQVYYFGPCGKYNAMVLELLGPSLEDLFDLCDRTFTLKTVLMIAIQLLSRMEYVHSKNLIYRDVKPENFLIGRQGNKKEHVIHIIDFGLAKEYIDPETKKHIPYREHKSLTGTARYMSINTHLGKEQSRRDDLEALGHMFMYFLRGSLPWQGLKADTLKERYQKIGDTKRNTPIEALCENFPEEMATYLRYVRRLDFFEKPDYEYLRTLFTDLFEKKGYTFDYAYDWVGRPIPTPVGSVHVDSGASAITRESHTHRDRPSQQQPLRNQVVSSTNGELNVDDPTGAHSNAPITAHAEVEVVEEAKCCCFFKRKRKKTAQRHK", "test": "ProQinase 33PanQinase selectivity profiling", "format": "biochemical", "conditions": "100 nM, relative to control"}, "[21]": {"biological_target": "CK2-alpha1 (Homo sapiens, UniProt P68400)", "test": "ProQinase 33PanQinase selectivity profiling", "format": "biochemical", "conditions": "100 nM, relative to control, read-out: Residual activity (%)"}, "[22]": {"biological_target": "CLK1 (Homo sapiens, UniProt P49759)", "test": "ProQinase 33PanQinase selectivity profiling", "format": "biochemical", "conditions": "100 nM, relative to control, read-out: Residual activity (%)"}, "[23]": {"biological_target": "T6, CSF1-R (Homo sapiens, UniProt P07333)", "T6 construct": "purchased ProQinase GmbH", "test": "ProQinase 33PanQinase selectivity profiling", "format": "biochemical", "conditions": "100 nM, relative to control, read-out: Residual activity (%)"}, "[24]": {"biological_target": "DAPK2 (Homo sapiens, UniProt Q9UIK4)", "test": "ProQinase 33PanQinase selectivity profiling", "format": "biochemical", "conditions": "100 nM, relative to control, read-out: Residual activity (%)"}, "[25]": {"biological_target": "DYRK1A (Homo sapiens, UniProt Q13627)", "test": "ProQinase 33PanQinase selectivity profiling", "format": "biochemical", "conditions": "100 nM, relative to control, read-out: Residual activity (%)"}, "[26]": {"biological_target": "EGF-R (Homo sapiens, UniProt P00533)", "test": "ProQinase 33PanQinase selectivity profiling", "format": "biochemical", "conditions": "100 nM, relative to control, read-out: Residual activity (%)"}, "[27]": {"biological_target": "EPHA1 (Homo sapiens, UniProt P21709)", "test": "ProQinase 33PanQinase selectivity profiling", "format": "biochemical", "conditions": "100 nM, relative to control, read-out: Residual activity (%)"}, "[28]": {"biological_target": "EPHA2 (Homo sapiens, UniProt P29317)", "test": "ProQinase 33PanQinase selectivity profiling", "format": "biochemical", "conditions": "100 nM, relative to control, read-out: Residual activity (%)"}, "[29]": {"biological_target": "T7, EPHA4 (Homo sapiens, UniProt P54764)", "T7 construct": "purchased ProQinase GmbH", "T7 sequence (P54764 20-986)": "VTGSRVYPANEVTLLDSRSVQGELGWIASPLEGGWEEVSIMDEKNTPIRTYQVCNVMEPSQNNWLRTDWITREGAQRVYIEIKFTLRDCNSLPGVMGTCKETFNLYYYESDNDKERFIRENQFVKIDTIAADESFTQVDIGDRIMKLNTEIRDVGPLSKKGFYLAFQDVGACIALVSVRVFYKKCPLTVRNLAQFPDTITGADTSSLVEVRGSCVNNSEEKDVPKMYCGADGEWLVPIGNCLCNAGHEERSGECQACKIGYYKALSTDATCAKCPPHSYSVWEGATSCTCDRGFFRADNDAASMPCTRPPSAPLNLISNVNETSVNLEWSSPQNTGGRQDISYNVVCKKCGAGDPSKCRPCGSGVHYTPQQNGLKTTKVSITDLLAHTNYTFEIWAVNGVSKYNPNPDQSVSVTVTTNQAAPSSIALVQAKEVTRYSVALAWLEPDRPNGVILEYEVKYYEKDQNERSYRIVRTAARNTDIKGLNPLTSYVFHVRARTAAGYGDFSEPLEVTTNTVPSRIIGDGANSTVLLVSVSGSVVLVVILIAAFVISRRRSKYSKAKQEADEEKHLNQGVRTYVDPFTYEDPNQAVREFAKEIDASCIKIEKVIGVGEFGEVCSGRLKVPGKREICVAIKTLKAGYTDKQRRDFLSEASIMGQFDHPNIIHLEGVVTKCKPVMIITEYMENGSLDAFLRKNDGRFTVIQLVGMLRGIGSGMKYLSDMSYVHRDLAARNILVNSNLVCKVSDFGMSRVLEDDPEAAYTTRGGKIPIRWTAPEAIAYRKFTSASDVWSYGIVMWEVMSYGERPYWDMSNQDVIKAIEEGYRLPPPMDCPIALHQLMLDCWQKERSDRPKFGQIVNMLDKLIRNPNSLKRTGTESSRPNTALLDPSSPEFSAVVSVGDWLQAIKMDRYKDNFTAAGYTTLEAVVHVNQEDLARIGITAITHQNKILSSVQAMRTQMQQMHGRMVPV", "test": "ProQinase 33PanQinase selectivity profiling", "format": "biochemical", "conditions": "100 nM, relative to control, read-out: Residual activity (%)"}, "[30]": {"biological_target": "DYRK4 (Homo sapiens, UniProt Q9NR20)", "test": "biochemical", "conditions": "read-out: Residual activity (%)"}}}
{"smiles": "COc1ccc(OC)c(CCC(=O)Nc2cc(-c3nc(SC)[nH]c3-c3ccc(F)cc3)ccn2)c1", "note": "[11b, 3-(2,5-Dimethoxyphenyl)-N-(4-(5-(4-fluorophenyl)-2-(methylthio)-1H-imidazol-4-yl)-pyridin-2-yl)-propanamide]", "values": [{"measurement": "remaining activity at 0.1 µM", "setting": "[1]", "value": 100, "unit": "%"}, {"measurement": "remaining activity at 0.1 µM", "setting": "[2]", "value": 96, "unit": "%"}, {"measurement": "remaining activity at 0.1 µM", "setting": "[3]", "value": 95, "unit": "%"}, {"measurement": "remaining activity at 0.1 µM", "setting": "[4]", "value": 101, "unit": "%"}, {"measurement": "remaining activity at 0.1 µM", "setting": "[5]", "value": 93, "unit": "%"}, {"measurement": "remaining activity at 0.1 µM", "setting": "[6]", "value": 92, "unit": "%"}, {"measurement": "remaining activity at 0.1 µM", "setting": "[7]", "value": 77, "unit": "%"}, {"measurement": "remaining activity at 0.1 µM", "setting": "[8]", "value": 98, "unit": "%"}, {"measurement": "remaining activity at 0.1 µM", "setting": "[9]", "value": 99, "unit": "%"}, {"measurement": "remaining activity at 0.1 µM", "setting": "[10]", "value": 96, "unit": "%"}, {"measurement": "remaining activity at 0.1 µM", "setting": "[11]", "value": 97, "unit": "%"}, {"measurement": "remaining activity at 0.1 µM", "setting": "[12]", "value": 91, "unit": "%"}, {"measurement": "remaining activity at 0.1 µM", "setting": "[13]", "value": 86, "unit": "%"}, {"measurement": "remaining activity at 0.1 µM", "setting": "[14]", "value": 87, "unit": "%"}, {"measurement": "remaining activity at 0.1 µM", "setting": "[15]", "value": 99, "unit": "%"}, {"measurement": "remaining activity at 0.1 µM", "setting": "[16]", "value": 105, "unit": "%"}, {"measurement": "remaining activity at 0.1 µM", "setting": "[17]", "value": 102, "unit": "%"}, {"measurement": "remaining activity at 0.1 µM", "setting": "[18]", "value": 98, "unit": "%"}, {"measurement": "remaining activity at 0.1 µM", "setting": "[19]", "value": 3, "unit": "%"}, {"measurement": "Residual activity (%)", "setting": "[20]", "value": "unaffected"}, {"measurement": "remaining activity at 0.1 µM", "setting": "[20]; read-out: Residual activity (%)", "value": 100, "unit": "%"}, {"measurement": "remaining activity at 0.1 µM", "setting": "[21]", "value": 97, "unit": "%"}, {"measurement": "remaining activity at 0.1 µM", "setting": "[22]", "value": 105, "unit": "%"}, {"measurement": "remaining activity at 0.1 µM", "setting": "[23]", "value": 104, "unit": "%"}, {"measurement": "remaining activity at 0.1 µM", "setting": "[24]", "value": 95, "unit": "%"}, {"measurement": "remaining activity at 0.1 µM", "setting": "[25]", "value": 96, "unit": "%"}, {"measurement": "remaining activity at 0.1 µM", "setting": "[26]", "value": 113, "unit": "%"}, {"measurement": "remaining activity at 0.1 µM", "setting": "[27]", "value": 104, "unit": "%"}, {"measurement": "remaining activity at 0.1 µM", "setting": "[28]", "value": 95, "unit": "%"}, {"measurement": "remaining activity at 0.1 µM", "setting": "[29]", "value": 96, "unit": "%"}, {"measurement": "remaining activity at 0.1 µM", "setting": "[30]", "value": 100, "unit": "%"}]}
